In patent publication US10618929B2, “3-substituted 5-amino-6H-thiazolo[4,5-D]pyrimidine-2, 7-dione compounds for the treatment and prophylaxis of virus infection” (Hoffmann-La Roche Inc., priority 2014, dated 2020):

How the values were obtained:
[1] = system: murine peripheral blood mononuclear cells (PBMC); assay: In vitro cytokine induction in murine PBMC (multiplex assay); settings: 2 to 10 μM, 24 hours, supernatant, dose-dependent
[2] = system: human hepatocytes; assay: Metabolic conversion of prodrugs to active forms in human hepatocytes; format: in vitro ADME; settings: active metabolites Example 1-A, Example 14-A and penciclovir, respectively
Excerpt: A study was undertaken to evaluate the metabolic conversion of prodrugs, formula (II) or formula (IIa), to compounds of formula (I) or formula (Ia) of the present invention. The produgs, formula (II) or formula (IIa), can be metabolized to the active compound of formula (I) or formula (Ia) and other compounds of the invention in the body if they are served as prodrugs. Hepatocytes are often used to assess the degree of metabolic conversion of prodrugs in the body of animal or human. A study was undertaken to evaluate the metabolic conversion of prodrugs, Example 2-A, Example 3-A, Example 4-A, Example 16-A and Example 17-A, to the corresponding active forms, Example 1-A and Example 14-A, in the presence of human hepatocytes. The formation of active forms, Example 1-A and Example 14-A, were monitored in the study. For comparison, the metabolic conversion of famciclovir to penciclovir was also assessed. Cryopreserved hepatocytes plating medium (Cat. #: PY-HMD-01) was purchased from RILD Research Institute for Liver Diseases (Shanghai) Co. Ltd. Cryopreserved human hepatocyte (Cat. #: X008005, Lot #:VRR) was purchased from In Vitro Technologies (Baltimore, Md.). The stock hepatocyte suspension was prepared from cryopreserved hepatocytes in plating medium at the concentration of 1.8×10^6 cells/mL. […] Reaction suspensions were prepared in 24-well cell culture plate by mixing 200 μL of hepatocytes suspension (Cyno or human) and 200 μL of working solution. The final incubation contained 0.9×10^6 cells/mL and 50 μM compound. The above mixtures were incubated at 37° C. in a humidified 5% CO2 atmosphere, with a 150 rpm shaking. After 180 min of incubation, 200 μL of the incubation mixture was transferred to 1.5 mL tube and quenched with 400 μL stop solution (ice-cold acetonitrile with 0.2 μM Tolbutamide as internal standard). The samples were centrifuged at 12000 rpm for 10 minutes and the resultant supernatants were subjected to LC-MS/MS analysis. The calibration curves were prepared in the following way. To a 200 μL of cell suspension (cell density of 1.8 million cells/mL), 198 μL of hepatocyte plating medium and 2 μL of the appropriate concentration of the compound in DMSO were added. Samples were mixed thoroughly and 200 μL of the mixture was transferred to 400 uL of the stop solution (see above). […] The compounds were quantified on an API5500 […] instrument in the ESI-Positive MRM mode.

With CCC(O)[C@@H]1C[C@@H](O)[C@H](n2c(=O)sc3c(=O)[nH]c(N)nc32)O1 (single isomer, unassigned) [Example 1-A] as the compound, how does the “Cytokine induction in murine PBMC” value [1] read?
The value was “high levels of IFNα, IP10, TNFα, and IL-6 were found induced”.

With CCC(O)[C@@H]1C[C@@H](O)[C@H](n2c(=O)sc3cnc(N)nc32)O1 (single isomer, unassigned) [Example 2-A] as the compound, how does the “Metabolic conversion of prodrug to active metabolite” value (shortened to “Metabolic conversion of prodrug”) [2] read?
The value was “metabolized to yield the corresponding active metabolites”.

How did the “Metabolic conversion of prodrug” value [2] turn out when CCC(O)[C@@H]1C[C@@H](OC(C)=O)[C@H](n2c(=O)sc3cnc(N)nc32)O1 (single isomer, unassigned) [Example 3-A] was run?
Its value is “metabolized to yield the corresponding active metabolites”.

Which “Metabolic conversion of prodrug” value [2] does the source give for CCC(OC(C)=O)[C@@H]1C[C@@H](O)[C@H](n2c(=O)sc3cnc(N)nc32)O1 (single isomer, unassigned) [Example 4-A] here?
Its value is “metabolized to yield the corresponding active metabolites”.

CC(=O)OC(C1CC1)[C@@H]1C[C@@H](O)[C@H](n2c(=O)sc3cnc(N)nc32)O1 (single isomer, unassigned) [Example 16-A] was tested. Which “Metabolic conversion of prodrug” value [2] did it give?
The value was “metabolized to yield the corresponding active metabolites”.

For Nc1ncc2sc(=O)n([C@@H]3O[C@H](C(O)C4CC4)C[C@H]3O)c2n1 (single isomer, unassigned) [Example 17-A], which “Metabolic conversion of prodrug” value [2] is on record?
The value was “metabolized to yield the corresponding active metabolites”.

For CC(=O)OCC(CCn1cnc2cnc(N)nc21)COC(C)=O [Famciclovir, famciclovir, reference compound], which “Metabolic conversion of prodrug” value [2] is on record?
Its value is “metabolized to yield the corresponding active metabolites”.
